In patent US6149904A, “Method for inhibiting tumor cell growth by administering to tumor cells expressing a nucleic acid encoding a connexin and a pro-drug” (The Regents of the University of California, priority 1997, dated 2000):

Experiments:
[1] = tested on: 9L glial tumor cells mixed with PA317 fibroblasts expressing HSV-tk; assay: GCV tumor toxicity, co-injected tumor cells and HSV-tk PA317 fibroblasts (Example 1); format: in vivo, athymic BALB/C mice; settings: GCV 25 mg/kg BID 7 days; tumors removed 14 days after start of GCV; 9L (high coupling) vs C6 (low coupling); FIG. 3
Method: The HSV-tk gene was stably cloned into a PA/317 fibroblasts as described in Mol. Cell. Biol. 6:2895-2902 (1986) and New Eng. J. Med. 232:570-578 (1990). Athymic (immune-incompetent) BALB/C mice were injected subcutaneously with mixtures of: 1) 1×10^7 tumor cells known to have either high (9L glial tumor cells) or low (C6 glial tumor cells) levels of gap junction mediated intercellular transport, and 2) 1×10^7 immortalized mouse fibroblasts (PA317 cells) engineered to express HSV-tk. The mixtures of inoculated cells were allowed to grow into tumors over a period of 7-14 days (the time for detectable tumor formation varied depending on the identity and number of injected cells). The tumor-bearing animals were then treated for 7 days with GCV (25 mg/kg, BID) or with phosphate buffeted saline (PBS). Tumor size was periodically monitored.
14 days following the initiation of GCV treatment the tumors were removed. FIG. 3 summarizes the average weight of tumors following their removal. […] Thus, tumor toxicity was greater in tumors with higher levels of gap junction mediated intercellular transport.

[2] = tested on: 9L tumor cells mixed with HSV-tk+ connexin43- fibroblasts; assay: GCV treatment of 9L tumors with HSV-tk+ connexin43- fibroblasts (Example 4); format: in vivo, athymic mice
Method: (§1) 5 athymic (immuno-incompetent) mice were injected subcutaneously with mixtures of 1×10^7 9L tumor cells and either immortalized connexin43^- mouse fibroblasts engineered to express HSV-tk (5 mice) or immortalized mouse fibroblasts from normal mice which express connexin 43 and had also been engineered to express HSV-tk (5 mice). The inoculated cells were allowed to grow into tumors. The tumor-bearing animals were treated with GCV (25 mg/kg) for 7 days. Tumor size was monitored and 14 days following the initiation of GCV treatment the tumors were removed. In a parallel experiment, animals injected with a mixture of 1×10^79L tumor cells and with immortalized connexin43^- mouse fibroblasts engineered to express HSV-tk were mock-treated with sham injections of phosphate buffeted saline (PBS) lacking GCV.
Two other groups of 5 animals inoculated with mixtures of 9L cells and HSV-tk^+ fibroblasts derived from cells lacking any connexin43 genes were identically treated.

9L glial tumor cells = assay: GCV therapy after injecting HSV-tk+ PA317 fibroblasts into pre-existing tumors (Example 2); format: in vivo, athymic mice; settings: GCV 25 mg/kg BID 7 days from 24 h after fibroblast injection; tumors weighed 14 days after start; FIG. 4
Method: 5 athymic (immuno-incompetent) mice were injected subcutaneously with 1×10^7 tumor cells known to have either high (9L glial tumor cells) or low (C6 glial tumor cells) levels of gap junction mediated intercellular transport. 1×10^7 HSV-tk^+ fibroblasts (PA317 cells) were injected into the center of tumors that were formed. GCV therapy (25 mg/kg, BID) was commenced 24 hours later and continued for 7 days. 14 days following the initiation of GCV treatment the tumors were removed and weighed.
These findings indicate the importance of gap junction mediated transport for the bystander killing of tumor cells.

[3] = tested on: 9L tumor cells mixed with HSV-tk+ fibroblasts expressing connexin43; assay: GCV treatment of 9L tumors with HSV-tk+ fibroblasts expressing connexin43 (Example 4); format: in vivo, athymic mice
Method: as §1
Of the 5 animals with tumors consisting of 9L cells and HSV-tk^+ fibroblasts expressing connexin43, only 3 animals still had detectable tumors when examined 7 days after the completion of GCV therapy. […] A matched control group of 5 animals which received sham injections of phosphate buffeted saline (PBS) instead of GCV all had tumors 7 days after the completion of this "sham treatment".

Nc1nc(O)c2ncn(COC(CO)CO)c2n1 [GCV, Ganciclovir]
tumor size (average weight of tumors) versus C6 tumors treated with GCV [1]: significantly smaller | therapeutic effect of GCV administration against tumors ([2]; GCV 25 mg/kg 7 days, fibroblasts with connexin genes deleted, FIG. 6): not effective | animals with tumors (of 5) ([2]; after 7 days of GCV treatment, 5 animals in group): 5 animals | average tumor weight ([2]; after 7 days of GCV treatment, group without GCV 5.68 g): 5.43 g | effect of GCV treatment on tumor weight, 9L versus C6 tumors (9L glial tumor cells): greater in 9L cells | animals with detectable tumors (of 5) ([3]; 7 days after completion of GCV therapy, 5 animals in group): 3 animals | average tumor weight ([3]; GCV 25 mg/kg 7 days, 7 days after completion of GCV therapy, PBS sham control 4.35 g): 0.63 g | therapeutic effect of GCV administration against tumors ([3]; GCV 25 mg/kg 7 days, fibroblasts with normal connexin 43 genes, FIG. 6): highly therapeutic effect
